Source: ChEMBL document CHEMBL1201862, “PubChem BioAssay data set” (2004)
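Grown in 96-well plates, cells were treated for 48 hours with each compound at five concentrations. Insufficient inhibition: endpoint recorded as highest concentration tested. At the GI50, growth is halved.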 Activity calls are given as the source filed them. Cut-off read from the data, not from the text of the source: active = GI50 up to about 1.1 µM and inactive = higher.

Assays:
Assay in all cases: NCI tumour cell line growth inhibition, 48 h
[1] = tested on: HCC 2998
[2] = tested on: OVCAR-3
[3] = tested on: EKVX
[4] = tested on: DLD-1
[5] = tested on: M19-MEL
[6] = tested on: SW-620
[7] = tested on: SK-MEL-28
[8] = tested on: KM-20L2
[9] = tested on: HT-29
[10] = tested on: SNB-19
[11] = tested on: UACC-62
[12] = tested on: LXFL 529
[13] = tested on: BT-549
[14] = tested on: MDA-N
[15] = tested on: NCI/ADR-RES
[16] = tested on: DU-145
[17] = tested on: T47D
[18] = tested on: OVCAR-4
[19] = tested on: COLO 205

Measured: GI50

COC(=O)c1nc(N)nc(C(=O)OC)c1C(=O)c1ccccc1
inactive: [1] > 100 µM | [2] > 100 µM | [3] > 100 µM | [4] > 100 µM | [5] > 100 µM | [6] > 100 µM | [7] > 100 µM | [8] > 100 µM | [9] > 100 µM | [10] > 100 µM | [11] > 100 µM | [12] > 100 µM

CCOC(=O)/C(=C\c1ccnc2ccccc12)P(=O)(OCC)OCC
inactive: [1] 12.9 µM | [13] 2.16 µM | [14] 2.3 µM | [2] 1.64 µM | [15] 1.72 µM | [3] 4.65 µM | [6] 2.52 µM | [16] 2.71 µM | [17] 3.18 µM | [7] 1.57 µM | [18] 2.26 µM | [19] 2.17 µM | [9] 2.16 µM | [10] 3.65 µM | [11] 2.65 µM

COc1ccc(C2SCC(=O)N2NC(=O)c2ccc(NC(C)=O)cc2)c(OC)c1 (configuration not stated)
inactive: [1] > 100 µM | [13] > 100 µM | [14] > 100 µM | [2] > 100 µM | [15] > 100 µM | [3] > 100 µM | [6] > 100 µM | [16] > 100 µM | [17] 93.3 µM | [7] > 100 µM | [18] > 100 µM | [19] > 100 µM | [9] > 100 µM | [10] > 100 µM | [11] > 100 µM

O=C(NCCCCCCNCc1cccc2ccccc12)Nc1cccc2ccccc12
inactive: [1] 85.3 µM | [13] > 100 µM | [14] > 100 µM | [2] > 100 µM | [15] > 100 µM | [3] > 100 µM | [6] > 100 µM | [16] > 100 µM | [17] > 100 µM | [7] > 100 µM | [18] > 100 µM | [19] > 100 µM | [9] > 100 µM | [10] > 100 µM | [11] > 100 µM

CN(C)CCCNC(=O)c1cn2c(ccc3sc4ccccc4c(=O)c32)n1
inactive: [1] 11.7 µM | [13] 18.5 µM | [14] 5.09 µM | [2] 10.7 µM | [15] 2.95 µM | [3] 14.4 µM | [6] 1.51 µM | [16] 12.3 µM | [17] 18.3 µM | [7] 5.46 µM | [18] 13.6 µM | [19] 3.77 µM | [9] 1.3 µM | [10] 15.1 µM | [11] 17.9 µM

O=S(=O)(O)c1cc(/N=[N+](\[O-])c2cc(S(=O)(=O)O)c3ccccc3c2)cc2ccccc12
inactive: [1] > 100 µM | [13] 19.5 µM | [14] 20 µM | [2] 12.4 µM | [15] > 100 µM | [3] 39.4 µM | [6] 31.8 µM | [16] 19.5 µM | [17] > 100 µM | [7] > 100 µM | [18] 20.5 µM | [19] > 100 µM | [9] > 100 µM | [10] 46.7 µM | [11] > 100 µM

CCOC(=O)c1cc2c([nH]1)c(O)cc1c2ccn1Cc1ccccc1
inactive: [1] 19 µM | [13] 17.8 µM | [14] 15.3 µM | [2] 14.6 µM | [15] 17.3 µM | [3] 12.8 µM | [6] 18 µM | [16] 17.8 µM | [17] 2.85 µM | [7] 17.5 µM | [18] 19.9 µM | [19] 21.4 µM | [9] 16.6 µM | [10] 14.2 µM | [11] 15.5 µM

COc1cc(C[C@@]2(C)[C@@H]3CCC[C@H](CO)[C@@]3(C)CC[C@@H]2C)c(Cl)c(OC)c1
inactive: [1] 16.1 µM | [13] 17.6 µM | [14] 15.5 µM | [2] 15.3 µM | [15] 15.2 µM | [3] 14.3 µM | [6] 29.2 µM | [16] 16.4 µM | [17] 9.53 µM | [7] 26.2 µM | [18] 15.8 µM | [19] 15.3 µM | [9] 13.3 µM | [10] 18.6 µM | [11] 15.3 µM

C#C/C=C\CCCC/C=C\C#CC#CCCCC#CC#C[C@H](COS(=O)(=O)O)OS(=O)(=O)O
inactive: [1] > 100 µM | [13] > 100 µM | [14] > 100 µM | [2] > 100 µM | [15] > 100 µM | [3] > 100 µM | [6] > 100 µM | [16] > 100 µM | [17] > 100 µM | [7] > 100 µM | [18] > 100 µM | [19] > 100 µM | [9] > 100 µM | [10] > 100 µM | [11] > 100 µM

CCC1(C(=O)OC(C)(C)C)OC12C(C)CCCC2C (configuration not stated)
inactive: [1] 18.3 µM | [13] > 100 µM | [14] 56.8 µM | [2] 34.3 µM | [15] > 100 µM | [3] 63.7 µM | [6] 29.5 µM | [16] > 100 µM | [17] 32.9 µM | [7] > 100 µM | [18] 28.1 µM | [19] 23.9 µM | [9] 39.5 µM | [10] 48.9 µM | [11] 50.4 µM

CSC(=S)OC1CC(n2cnc3c(NC(=O)c4ccccc4)ncnc32)OC1CO[Si](C)(C)C(C)(C)C (configuration not stated)
inactive: [1] 9.02 µM | [13] 16.5 µM | [14] 7.87 µM | [2] 11 µM | [15] 9.02 µM | [3] 25.1 µM | [6] 12.5 µM | [16] 26.9 µM | [17] 5 µM | [7] 33.3 µM | [18] 7.57 µM | [19] 5.85 µM | [9] 9.18 µM | [10] 36.7 µM | [11] 14.1 µM

C/C(=C/CO[Si](C)(C)C(C)(C)C)C(=O)N(C)c1ccccc1I
inactive: [1] 14.3 µM | [13] 20.8 µM | [14] 17.7 µM | [2] 15.9 µM | [15] 17.4 µM | [3] 15 µM | [6] 17.6 µM | [16] 18.2 µM | [17] 14.8 µM | [7] 17.9 µM | [18] 15.3 µM | [19] 18.5 µM | [9] 10 µM | [10] 16.6 µM | [11] 14.8 µM

CC(C)NC(=O)OCc1c(COC(=O)NC(C)C)n(C)c2c1ccc1sccc12
inactive: [1] 15.2 µM | [13] 2.96 µM | [14] 17.4 µM | [2] 15.7 µM | [15] > 25.4 µM | [3] 11.2 µM | [6] 16.2 µM | [16] 6.78 µM | [17] 17.3 µM | [7] 18.1 µM | [18] 12.8 µM | [19] 13.6 µM | [9] 24.2 µM | [10] 20.8 µM | [11] 10.2 µM
